Source: PubChem BioAssay (NCI)
Values joined by “and” are separate entries in the source; they are usually repeats but may differ in a detail not shown here. Equal entries are not always repeated.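 Method: 48-hour compound exposure of cells in 96-well plates, five concentrations, linear interpolation of endpoints. GI50 marks 50% less growth. TGI marks complete inhibition of growth.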

How the values were obtained:
Experiment in all cases: DTP human tumour cell line panel, 48 h
KM12 colon = tested on: KM12 colon
TK-10 renal = tested on: TK-10 renal
MDA-MB-231 breast = tested on: MDA-MB-231 breast
RXF 393 renal = tested on: RXF 393 renal
NCI-H460 lung = tested on: NCI-H460 lung
MDA-MB-435 = tested on: MDA-MB-435
HCC-2998 colon = tested on: HCC-2998 colon
LOX IMVI melanoma = tested on: LOX IMVI melanoma
HL-60(TB) leukemia = tested on: HL-60(TB) leukemia
M14 melanoma = tested on: M14 melanoma

SMILES | TGI (KM12 colon) [µM] | TGI (TK-10 renal) [µM] | TGI (MDA-MB-231 breast) [µM] | TGI (RXF 393 renal) [µM] | TGI (NCI-H460 lung) [µM] | TGI (MDA-MB-435) [µM] | TGI (HCC-2998 colon) [µM] | TGI (LOX IMVI melanoma) | TGI (HL-60(TB) leukemia) | TGI (M14 melanoma) [µM] | GI50 (HL-60(TB) leukemia) [µM] | GI50 (RXF 393 renal) [µM] | GI50 (NCI-H460 lung) [µM] | GI50 (KM12 colon) [µM] | GI50 (TK-10 renal) [µM] | GI50 (MDA-MB-231 breast) [µM] | GI50 (MDA-MB-435) [µM] | GI50 (HCC-2998 colon) [µM] | GI50 (LOX IMVI melanoma) [µM]
N#Cc1c(C#N)c(SSc2c(C#N)c(C#N)c(N)n2-c2ccccc2)n(-c2ccccc2)c1N | > 63.3 | 3.29 | > 69.6 | 44.7 | > 89.3 | 29.2 | 51 | > 100 µM | – | – | – | – | – | – | – | – | – | – | –
CN1OC(=O)N(C)C1c1ccccc1 (centres undefined) | > 100 | – | – | > 100 | > 100 | – | > 100 | > 100 µM | > 100 µM | – | – | – | – | – | – | – | – | – | –
CNC(=O)CN1CC(=O)N(C)C(=O)C1 | > 100 | > 100 | – | > 100 | – | – | > 100 | > 100 µM | > 100 µM | > 100 | – | – | – | – | – | – | – | – | –
O=C(O)CCC1(c2ccccc2)NC(=O)NC1=O (centres undefined) | > 100 | > 100 | > 100 | > 100 | > 100 | > 100 | > 100 | > 100 µM | > 100 µM | > 100 | – | – | – | – | – | – | – | – | –
COc1ccc2c(c1)c1cc(OC)ccc1n2CCCCOc1ccc(-c2c3ccccc3c(-c3ccc(OCCCCn4c5ccc(OC)cc5c5cc(OC)ccc54)cc3)c3ccccc23)cc1 | > 100 | > 100 | – | – | – | – | > 100 | > 100 µM | – | > 100 | – | – | – | – | – | – | – | – | –
CC(=O)Oc1c(OC(C)=O)c(-c2ccc(O)c(O)c2)c(O)c(O)c1-c1ccc(O)cc1 | > 100 | – | – | > 100 | > 100 | – | > 100 | 94 µM and 95.9 µM | 52.6 µM and > 100 µM | – | 19 | > 100 | 69.7 | – | – | – | – | – | –
Nc1ccn(C2OC(COP(=O)(O)Oc3ccccc3)C(O)C2O)c(=O)n1 (centres undefined) | > 100 | – | – | > 100 | > 100 | – | > 100 | > 100 µM | > 100 µM | – | – | – | – | – | – | – | – | – | –
COc1ccc(NC2=NCCO2)c2ccccc12 | > 10 | > 10 | > 10 | > 10 | > 10 | > 10 | > 10 | > 10 µM | > 10 µM | > 10 | – | – | – | – | – | – | – | – | –
Cc1nc(-c2nc([N+](=O)[O-])c([N+](=O)[O-])[nH]2)cs1 | > 100 | > 100 | – | > 100 | > 100 | – | > 100 | > 100 µM | > 100 µM | > 100 | – | – | – | – | – | – | – | – | –
CCN1/C(=C/C(C)=C/c2sc3ccccc3[n+]2CC)Sc2ccccc21 | 1.21 | 1.37 | – | 1.59 | 0.517 | – | 0.876 | – | 4.78 µM | 0.847 | – | – | – | – | – | – | – | – | –
O/N=C\c1cc(O)c(O)c(/C=N/O)c1 | > 100 | > 100 | > 100 | > 100 | > 100 | > 100 | – | > 100 µM | > 100 µM | > 100 | – | – | – | – | – | – | – | – | –
Cc1ccc2[nH]c3c(C)c4ccncc4c(C)c3c2c1 | 2.12 | 14.2 | – | 0.513 | 1.77 | – | 2.87 | 4.77 µM | 3.42 µM | 3.29 | – | – | – | – | – | – | – | – | –
O=C(CCN1CCCC1)Nc1ccc2c(NCCCc3ccccc3)c3ccccc3nc2c1 | 2.54 | 3.41 | 2.3 | 2.2 | 1.6 | 2.82 | 2.43 | 2.04 µM | – | – | – | 0.918 | 0.46 | 1.17 | 1.66 | 1.02 | 1.46 | 1.14 | 0.739
COc1cc2c(cc1OC)CCN=C2 | > 100 | > 100 | > 100 | > 100 | > 100 | > 100 | > 100 | > 100 µM | > 100 µM | > 100 | – | – | – | – | – | – | – | – | –
